Measurements taken from patent US3956312A, “Indazole-3-carboxylic acid hydrazides and a process for the preparation thereof” (Egyt Gyogyszervegyeszeti Gyar, priority 1973, dated 1976).
Counter-ions that a name gives are not always drawn. Like-named read-outs stand apart in the source and are kept apart here.

Experiments:
[1] = acute toxicity (LD50), intraperitoneal, 48 hours observation; settings: mouse, in vivo, ip, read-out: Toxicity LD5
Experimental: (§1) The spasmolytic effect was tested under in vivo conditions on white mice, by the carbon suspension method of Stickney. The active agents were administered intraperitoneally, and the total length of the small intestines as well as the length of the intestines filled with carbon were measured. […] The ED50 values were calculated according to the LitchfieldWilcoxon method from the thus-transformed values. In order to evaluate the safety margin of the active agents, the acute LD50 values were also determined on white mice in intraperitoneal administration. The observation periods in the toxicity tests were 48 hours, and the calculation was performed according to the LitchfieldWilcoxon method, also taking into consideration the perished animals.

[2] = spasmolytic effect in vivo, carbon suspension method of Stickney; settings: mouse, in vivo, ip; Table 1, spasmolytic effect, white mice, intraperitoneal; read-out: Therapeutical index LD50/ED50
Experimental: as §1

small intestines = test: as above; settings: Mus musculus, ip; white mice, intraperitoneal, Litchfield-Wilcoxon
Experimental: as §1

gastric acid secretion [3] = test: inhibition of gastric acid secretion, Shay's method; type: in vivo, Wistar rats; settings: 5 hours
Experimental: The animals were operated according to Shay's method, and the substance to be tested was administered intraperitoneally. After 5 hours the animals were sacrified, and the volume of gastric juice, the amount of free hydrochloric acid, and the total acidity were determined.

gastric acid secretion [4] = test: as above; type: in vivo, Wistar rats; settings: 5 hours; remark: listed apart in the source
[5] = toxicity LD50 listed with the antidepressant activity (Table 4); settings: mouse, in vivo
[6] = antidepressant activity, inhibition of tetrabenazine ptosis; type: in vivo, mice; settings: mouse, in vivo; Table 4, antidepressant activity, mice, oral; read-out: Therapeutical index
Experimental: (§2) The antidepressant activity was examined on mice, after oral administration. Tetrabenazine was administered to the animals in a dosage provoking maximum ptosis, and the inhibiting activity of the tested compounds was measured.

tetrabenazine ptosis = test: as above; type: in vivo, mice; settings: for ED50: Mus musculus, mice, oral, tetrabenazine ptosis
Experimental: as §2

Reserpine-ulcer = test: antiulcer activity, Reserpine-ulcer; type: in vivo, rats; settings: related to the controls averages
Experimental: (§3) The antiulcer activity of 5,6-dimethoxyindazole-3-carboxylic acid-benzylhydrazide was determined on rats.

[7] = toxicity on mice p.o. (Table 2); settings: mouse, in vivo, po
Shay ulcer = test: antiulcer activity, Shay ulcer; type: in vivo, rats; settings: related to the controls averages
Experimental: as §3
**Shay ulcer (Shay, H., Komarov, S.A., Fels, S.S., Meranze, D.,
Gruenstein, M., Siplet, H.: Gastroenterology 5, 45 /1945/)

[8] = white mice, intraperitoneal, 48 hours observation

Structure (SMILES): COc1cc2[nH]nc(C(=O)NNC(C)C)c2cc1OC [Compound 7]
- LD50 at 48 h [1, 8]: 720 mg/kg
- selectivity ratio [2]: 20
- ED50 (small intestines): 36 mg/kg
- Percentage inhibition of free HCl (gastric acid secretion [3]; 100 mg./kg. intraperitoneal): 85%
- Percentage inhibition of gastric juice (gastric acid secretion [3]; 100 mg./kg. intraperitoneal): 80%
- Percentage inhibition of total acidity (gastric acid secretion [3]; 100 mg./kg. intraperitoneal): 67%

Structure (SMILES): COc1cc2[nH]nc(C(=O)NNC3CCCCCC3)c2cc1OC [Compound 28, 5,6-dimethoxyindazole-3-carboxylic acid-cycloheptylhydrazide]
- LD50 at 48 h [1, 8]: 1200 mg/kg
- selectivity ratio [2]: 4.3
- ED50 (small intestines): 280 mg/kg
- Percentage inhibition of gastric juice (gastric acid secretion [4]; 50 mg./kg. intraperitoneal): 46%
- Percentage inhibition of total acidity (gastric acid secretion [4]; 50 mg./kg. intraperitoneal): 38%
- Percentage inhibition of free HCl (gastric acid secretion [3]; 50 mg./kg. intraperitoneal): 47%
- Percentage inhibition of free HCl (gastric acid secretion [3]; 100 mg./kg. intraperitoneal): 63%
- Percentage inhibition of gastric juice (gastric acid secretion [3]; 100 mg./kg. intraperitoneal): 47%
- Percentage inhibition of total acidity (gastric acid secretion [3]; 100 mg./kg. intraperitoneal): 36%

Structure (SMILES): CN(C)CCC=C1c2ccccc2CCc2ccccc21 [amitryptiline, 5-(3-dimethylamino-propylidene)-10,11-dihydro-5H-dibenzo(a,d)cycloheptan hydrochloride, reference compound]
- LD50 ([5]; Table 4): 225 mg/kg
- selectivity ratio [6]: 17.3
- ED50 (tetrabenazine ptosis): 13 mg/kg

Structure (SMILES): CCN(CC)CCOC(=O)C(c1ccccc1)c1ccccc1.Cl [Adiphenine, 2-diethylaminoethyl-diphenylacetate hydrochloride, reference compound]
- Percentage inhibition of free HCl (gastric acid secretion [3]; 100 mg./kg. intraperitoneal): 0%
- Percentage inhibition of gastric juice (gastric acid secretion [3]; 100 mg./kg. intraperitoneal): 36%
- Percentage inhibition of total acidity (gastric acid secretion [3]; 100 mg./kg. intraperitoneal): 0%

Structure (SMILES): COc1cc2[nH]nc(C(=O)NNC(C)c3ccc([N+](=O)[O-])cc3)c2cc1OC (centres unmarked) [Compound 35, 5,6-dimethoxyindazole-3-carboxylic acid-1'-(4"-nitrophenyl)-ethylhydrazide]
- LD50 [5]: > 5000 mg/kg
- LD50 at 48 h [1]: 5000 mg/kg
- selectivity ratio [6]: 17.9
- ED50 (tetrabenazine ptosis): 280 mg/kg
- selectivity ratio [2]: 2000
- ED50 (small intestines): 2.5 mg/kg

Structure (SMILES): COc1ccc(CC(C)NNC(=O)c2n[nH]c3cc(OC)c(OC)cc23)cc1OC (centres unmarked) [Compound 37, 5,6-dimethoxyindazole-3-carboxylic acid-2'-(3'-/3",4"-dimethoxyphenyl/)-propylhydrazide]
- LD50 at 48 h [1, 8]: 2700 mg/kg
- selectivity ratio [2]: 310
- ED50 (small intestines): 8.7 mg/kg

Structure (SMILES): COc1cc2[nH]nc(C(=O)NNCc3ccccc3O)c2cc1OC [Compound 32, 5,6-dimethoxyindazole-3-carboxylic acid-2'-hydroxybenzylhydrazide]
- LD50 [5]: > 3000 mg/kg
- LD50 at 48 h [1]: > 3000 mg/kg
- selectivity ratio [6]: 136
- ED50 (tetrabenazine ptosis): 22 mg/kg
- therapeutical width (tetrabenazine ptosis; compared with amitryptiline): significantly exceeds that of the well known agent, amitryptiline
- selectivity ratio [2]: 120
- ED50 (small intestines): 25 mg/kg

Structure (SMILES): COc1cc2[nH]nc(C(=O)NNCc3ccccc3)c2cc1OC [Compound 30, 5,6-dimethoxyindazole-3-carboxylic acid-benzylhydrazide]
- LD50 ([5]; Table 4): 2000 mg/kg
- Percentage inhibition according to the occurrence of ulcer (Reserpine-ulcer; 10 mg./kg.): 0%
- Percentage inhibition according to the ulcer index (Reserpine-ulcer; 10 mg./kg.): 14%
- Percentage inhibition according to ulcer diameters 2-5 mm. (Reserpine-ulcer; 10 mg./kg.): 14%
- Percentage inhibition according to ulcer diameters 5-10 mm. (Reserpine-ulcer; 10 mg./kg.): 0%
- Percentage inhibition according to ulcer diameters <2 mm. (Reserpine-ulcer; 10 mg./kg.): 22%
- Percentage inhibition according to ulcer diameters >10 mm. (Reserpine-ulcer; 10 mg./kg.): 0%
- Percentage inhibition according to the occurrence of ulcer (Reserpine-ulcer; 25 mg./kg.): 70%
- Percentage inhibition according to the ulcer index (Reserpine-ulcer; 25 mg./kg.): 81%
- Percentage inhibition according to ulcer diameters 2-5 mm. (Reserpine-ulcer; 25 mg./kg.): 100%
- Percentage inhibition according to ulcer diameters 5-10 mm. (Reserpine-ulcer; 25 mg./kg.): 100%
- Percentage inhibition according to ulcer diameters <2 mm. (Reserpine-ulcer; 25 mg./kg.): 93%
- Percentage inhibition according to ulcer diameters >10 mm. (Reserpine-ulcer; 25 mg./kg.): 100%
- Percentage inhibition according to the occurrence of ulcer (Reserpine-ulcer; 50 mg./kg.): 90%
- Percentage inhibition according to the ulcer index (Reserpine-ulcer; 50 mg./kg.): 97%
- Percentage inhibition according to ulcer diameters 2-5 mm. (Reserpine-ulcer; 50 mg./kg.): 100%
- Percentage inhibition according to ulcer diameters 5-10 mm. (Reserpine-ulcer; 50 mg./kg.): 100%
- Percentage inhibition according to ulcer diameters <2 mm. (Reserpine-ulcer; 50 mg./kg.): 98%
- Percentage inhibition according to ulcer diameters >10 mm. (Reserpine-ulcer; 50 mg./kg.): 100%
- LD50 [7]: 2000 mg/kg
- selectivity ratio [6]: 14.3
- ED50 (tetrabenazine ptosis): 140 mg/kg
- Percentage inhibition of gastric juice (gastric acid secretion [4]; 25 mg./kg. i.p.): 13%
- Percentage inhibition of free HCl (gastric acid secretion [4]; 50 mg./kg. p.o.): 50%
- Percentage inhibition of gastric juice (gastric acid secretion [4]; 50 mg./kg. p.o.): 36%
- Percentage inhibition of total acidity (gastric acid secretion [4]; 50 mg./kg. p.o.): 39%
- Percentage inhibition of free HCl (gastric acid secretion [4]; 100 mg./kg. p.o.): 76%
- Percentage inhibition of gastric juice (gastric acid secretion [4]; 100 mg./kg. p.o.): 48%
- Percentage inhibition of total acidity (gastric acid secretion [4]; 100 mg./kg. p.o.): 63%
- Percentage inhibition of free HCl (gastric acid secretion [4]; 200 mg./kg. i.p.): 72%
- Percentage inhibition of gastric juice (gastric acid secretion [4]; 200 mg./kg. i.p.): 63%
- Percentage inhibition of total acidity (gastric acid secretion [4]; 200 mg./kg. i.p.): 64%
- Percentage inhibition of free HCl (gastric acid secretion [3]; 25 mg./kg. i.p.): 33%
- Percentage inhibition of total acidity (gastric acid secretion [3]; 25 mg./kg. i.p.): 20%
- Percentage inhibition of free HCl (gastric acid secretion [3]; 100 mg./kg. intraperitoneal): 74%
- Percentage inhibition of gastric juice (gastric acid secretion [3]; 100 mg./kg. intraperitoneal): 48%
- Percentage inhibition of total acidity (gastric acid secretion [3]; 100 mg./kg. intraperitoneal): 56%
- Percentage inhibition according to the occurrence of ulcer (Shay ulcer; 100 mg./kg.): 12%
- Percentage inhibition according to the ulcer index (Shay ulcer; 100 mg./kg.): 33%
- Percentage inhibition according to ulcer diameters 2-5 mm. (Shay ulcer; 100 mg./kg.): 42%
- Percentage inhibition according to ulcer diameters 5-10 mm. (Shay ulcer; 100 mg./kg.): 71%
- Percentage inhibition according to ulcer diameters <2 mm. (Shay ulcer; 100 mg./kg.): 0%
- Percentage inhibition according to ulcer diameters >10 mm. (Shay ulcer; 100 mg./kg.): 62%
- Percentage inhibition according to the occurrence of ulcer (Shay ulcer; 200 mg./kg.): 22%
- Percentage inhibition according to the ulcer index (Shay ulcer; 200 mg./kg.): 53%
- Percentage inhibition according to ulcer diameters 2-5 mm. (Shay ulcer; 200 mg./kg.): 85%
- Percentage inhibition according to ulcer diameters 5-10 mm. (Shay ulcer; 200 mg./kg.): 67%
- Percentage inhibition according to ulcer diameters <2 mm. (Shay ulcer; 200 mg./kg.): 86%
- Percentage inhibition according to ulcer diameters >10 mm. (Shay ulcer; 200 mg./kg.): 100%

Structure (SMILES): COc1ccc(Cc2nccc3cc(OC)c(OC)cc23)cc1OC [papaverine, reference compound]
- LD50 at 48 h [1, 8]: 132 mg/kg
- selectivity ratio [2]: 2.9
- ED50 (small intestines): 46 mg/kg

Structure (SMILES): CCCN(CCC)C(=O)C(CCC(=O)O)NC(=O)c1ccccc1 (centres unmarked) [Xylamide, reference compound]
- Percentage inhibition of free HCl (gastric acid secretion [4]; 500 mg./kg. intraperitoneal): 89%
- Percentage inhibition of gastric juice (gastric acid secretion [4]; 500 mg./kg. intraperitoneal): 81%
- Percentage inhibition of total acidity (gastric acid secretion [4]; 500 mg./kg. intraperitoneal): 80%
